Reference: patent publication US20210008095A1, “METHODS FOR TREATING MUSCULAR DYSTROPHY” (Sarepta Therapeutics, Inc., priority 2015, published 2021)
Where “and” joins values, the source holds several entries; their conditions need not be identical. Equal entries are not always repeated. Entries after “also recorded” stand apart in the source; their conditions may differ.

What was measured:
[1] = system: patients with Duchenne muscular dystrophy (DMD) amenable to exon 51 skipping; test: Pulmonary function testing (MIP, MEP, FVC); type: in vivo, human; conditions: baseline through Week 192
From the text: In some embodiments, treatment with eteplirsen slows or reduces the progressive respiratory muscle dysfunction and/or failure in patients with DMD that would be expected without treatment. In some embodiments, treatment with eteplirsen stabilizes respiratory muscle function in patients with DMD. In one embodiment, treatment with eteplirsen may reduce or eliminate the need for ventilation assistance that would be expected without treatment. In one embodiment, measurements of respiratory function for tracking the course of the disease, as well as the evaluation of potential therapeutic interventions include Maximum inspiratory pressure (MIP), maximum expiratory pressure (MEP) and forced vital capacity (FVC). MIP and MEP measure the level of pressure a person can generate during inhalation and exhalation, respectively, and are sensitive measures of respiratory muscle strength. […]
(§1) The 6MWT was administered using the protocol established for patients with DMD by McDonald, et al. (Muscle Nerve, 2010; 42:966-74; Muscle Nerve, 2010; 41:500-10 herein incorporated by reference), except there was no use of the StepWatch actimetry device. Exploratory functional outcomes included the North Star Ambulatory Assessment, quantitative muscle testing, the 9-Hole Peg Test, pulmonary function testing (PFT), timed function tests, and assessment of quality of life.

[2] = system: patients with Duchenne muscular dystrophy (DMD) amenable to exon 51 skipping; test: Ability to rise independently from supine / rise time; type: in vivo, human
From the text: In some embodiments, muscle function in a DMD patient may be assessed for ability to rise from a supine position without external assistance (independently). In some embodiments, the assessment can include whether or not the subject has the ability to rise from a supine position. In some embodiments, the assessment includes the time (e.g., in seconds) it takes for the patient to rise from a supine position without external assistance. Such measurements are well known to the skilled artisan and are described in, e.g., Bushby and Connor (2011) Clin Investig (Lond.) 1(9):1217-1235 and Henricson et al. (2013) Muscle Nerve 48(1):55-67, the disclosures of each of which are incorporated herein by reference in their entirety. In some embodiments, a patient treated by any of the methods described herein has lost the ability to rise independently from a supine position prior to beginning treatment with eteplirsen. In some embodiments, the patient lost the ability to rise independently from a supine position at least one (e.g., at least two, three, four, five, six, seven, eight, nine, 10, 11, 12, 16, 18, 20, 24, or more) month(s) prior to beginning treatment with eteplirsen. In some embodiments, a patient treated by any of the methods described herein loses the ability to rise independently from a supine position while being treated with eteplirsen. In some embodiments, the patient loses the ability to rise independently from a supine position at least one (e.g., at least two, three, four, five, six, seven, eight, nine, 10, 11, 12, 16, 18, 20, 24, 30, or 36 or more) month(s) after commencing treatment with eteplirsen.
as §1

[3] = individual ambulatory subjects (n=10), year of loss of ability in brackets

Substance: RNA, [P-deoxy-P-(dimethylamino)](2′,3′-dideoxy-2′,3′-imino-2′,3′-seco)(2′a→5′)(C-m5U-C-C-A-A-C-A-m5U-C-A-A-G-G-A-A-G-A-m5U-G-G-C-A-m5U-m5U-m5U-C-m5U-A-G), 5′-[P-[4-[[2-[2-(2-hydroxyethoxy)ethoxy]ethoxy]carbonyl]-1-piperazinyl]-N,N-dimethylphosphonamidate] (antisense CTCCAACATCAAGGAAGATGGCATTTCTAG; all phosphorodiamidate morpholino (PMO); 5' piperazinyl triethylene glycol carbamate tail on phosphonamidate, further chemistry not fully specified) [eteplirsen]
- pulmonary function (MIP, MEP, FVC) [1]: continued stabilization of pulmonary function; also recorded: either maintained or had only a slight decline in all of MIP, MEP, and FVC
- number of patients who lost the ability to rise without external support ([2]; from years 1 to 3): four
- Year 3 Rise Time [2, 3]: 24.1 s and 17.9 s and 13.1 s and 8.9 s and 8.2 s and 6.2 s
- Year 3 Rise Time(s) [2, 3]: Unable to rise
